Reference: patent publication US12162855B2, “Tetrahydroquinolino derivatives for the treatment of metastatic and chemoresistant cancers” (THE TRUSTEES OF PRINCETON UNIVERSITY, priority 2018, dated 2024)

Tests used:
[1] = Toxicity experiments in C57Bl6 mice (IP); format: in vivo
Experimental: All mice were originally ordered from the Jackson Laboratory (Bar Harbor, ME) and breeding was conducted in a specific pathogen-free (SPF) barrier facility. Toxicity experiments were performed on 8-12-week old male and female C57B16 mice. MBE1 was dissolved at 50 mg/mL in DMSO followed by a […] into Kolliphor EL, followed by a 1:5 dilution into PBS to yield a 5 mg/ml MBE1 solution, (10% DMSO, 10% Kolliphor EL, 80% PBS). This was administered via IP injection at ascending doses from 12.5 to 200 mg/kg body mass in a set of 3 mice at 24 h intervals. Body condition score, food uptake, fecal/urine production, behavior and body weight were measured as toxicity readouts. Five mice were then treated every 3 days with 25 mg/kg MBE1 for 18 days.

SUM159-M1a cells = assay: Lung metastasis xenograft, SUM159-M1a cells by tail vein injection, BLI; format: in vivo, mouse; conditions: MBE1 IP in conjunction with paclitaxel, tail vein injection model
Experimental: All xenograft experiments were conducted on 8-week old female mice (athymic Nu/Nu, or NOD/SCID Gamma). Xenograft experiments were conducted using 125,000 SUM159-M1a cells in 100 μL PBS for tail vein or intracardiac injection. Mice were randomized following injection. Bioluminescent imaging (BLI) was conducted using the IVIS 200 system and retroorbital luciferin injection. For drug treatment, MBE1 (prepared as above) was given to mice via IP injection in conjunction with paclitaxel (5 mg/mL in 10% ethanol, 10% Kolliphor EL, 80% PBS) at the time intervals and dosages indicated in FIG. 5A (tail vein injection) and FIG. 6A (intracardiac injection).
FIG. 5B is a line graph of lung metastasis, as measured using bioluminescence imaging (BLI), versus time (days), and compares lung metastasis in the presence and absence of MBE1 in the mice from the experiment outlined in FIG. 5A. FIG. 6B is a line graph of bone metastasis, as measured using BLI, versus time (days), and compares bone metastasis in the presence and absence of MBE1 in the mice from the experiment outlined in FIG. 6A.

Aldh1a2 = molecular target: T1, Aldh1a2 (Homo sapiens, UniProt O94788); assay: ALDEFLUOR assay in 293T cells transiently transfected with human Aldh1a2; format: cell-based; conditions: concentrations below 10 μM
T1 construct: expressed in transfected cells; host or cells: 293T, transient transfection
T1 sequence (O94788 1-518): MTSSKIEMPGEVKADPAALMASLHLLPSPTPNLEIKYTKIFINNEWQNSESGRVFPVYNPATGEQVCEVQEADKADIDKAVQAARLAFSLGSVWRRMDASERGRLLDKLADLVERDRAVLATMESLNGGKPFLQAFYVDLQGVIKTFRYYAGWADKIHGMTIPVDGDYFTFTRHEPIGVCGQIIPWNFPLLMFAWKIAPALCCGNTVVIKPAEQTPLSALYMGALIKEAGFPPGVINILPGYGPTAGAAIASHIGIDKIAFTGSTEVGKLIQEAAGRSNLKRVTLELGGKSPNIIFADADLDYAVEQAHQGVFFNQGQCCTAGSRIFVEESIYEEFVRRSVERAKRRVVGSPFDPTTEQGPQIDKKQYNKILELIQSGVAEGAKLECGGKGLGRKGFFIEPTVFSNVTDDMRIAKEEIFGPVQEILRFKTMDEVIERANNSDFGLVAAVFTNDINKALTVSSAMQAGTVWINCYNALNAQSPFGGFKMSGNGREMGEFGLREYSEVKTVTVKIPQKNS
Experimental: (§1) The coding sequences of Aldh1a1, Aldh1a2, Aldh1a3 and Aldh3a1 were cloned from cDNA made from pooled human reference RNA samples. Cloned sequences flanked by Age1 and Xho1 restriction sites were inserted into the pLex lentiviral plasmid. Clones were sequenced and compared against NCBI expressed sequence tags (ESTs) for accuracy. Viral production of each enzyme was performed by transfection into the 293T packaging cell line using PEI along with PsPax2 and VSVG packaging vectors. Viruses were collected and filtered at 0.45 μm, then cells were transduced using polybrene (8 μg/mL) for 12 hours, followed by culture with 1 μg/mL puromycin for the duration of experiments. All viral transduction and selection was performed on a cell population-wide basis.
(§2) Cells were counted, centrifuged and resuspended at 1,000,000 cells/mL in ALDEFLUOR™ buffer (Stemcell Technologies). ALDEFLUOR™ substrate (Stemcell Technologies, 1:200) and test compound or 1 mM DEAB were added to cell suspension and incubated at 37° C. for 45 minutes with vortexing every 15 minutes. Cells were centrifuged and resuspended in ALDEFLUOR™ buffer with DAPI at 5 μg/mL. Samples were analyzed with the BD LSR2 flow cytometry platform. Gating was performed using DEAB as a negative control.

ALDH1a3 = molecular target: T2, ALDH1a3 (Homo sapiens, UniProt P47895); assay: ALDEFLUOR assay in SUM159 cells expressing ALDH isoforms 1a1, 1a2, 1a3, 3a1; format: cell-based; conditions: SUM159 cells expressing ALDH 1a1, 1a2, 1a3 or 3a1
T2 construct: lentiviral vectors containing either the vector backbone or full-length human Aldh1a3; expressed in transfected cells; host or cells: SUM159-M1a (A1) and SUM159 (A7) breast cancer cells, lentiviral pLex vector, puromycin selection
T2 sequence (P47895 1-512): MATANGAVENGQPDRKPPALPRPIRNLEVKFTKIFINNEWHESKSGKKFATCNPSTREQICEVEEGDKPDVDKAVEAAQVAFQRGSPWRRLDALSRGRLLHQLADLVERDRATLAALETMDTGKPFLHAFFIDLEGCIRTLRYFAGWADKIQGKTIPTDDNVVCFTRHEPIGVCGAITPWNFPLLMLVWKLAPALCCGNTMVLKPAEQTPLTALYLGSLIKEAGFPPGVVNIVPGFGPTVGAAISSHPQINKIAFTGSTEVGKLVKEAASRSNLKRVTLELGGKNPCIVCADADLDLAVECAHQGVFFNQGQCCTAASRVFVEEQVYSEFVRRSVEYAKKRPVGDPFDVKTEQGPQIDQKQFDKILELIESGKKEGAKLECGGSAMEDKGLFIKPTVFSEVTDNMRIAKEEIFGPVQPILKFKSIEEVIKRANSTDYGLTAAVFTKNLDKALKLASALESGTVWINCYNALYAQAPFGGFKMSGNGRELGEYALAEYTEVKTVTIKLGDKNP
Experimental: as §1, §2
ALDH isoforms 1a1, 1a2, 1a3 and 3a1 were expressed in MCF7 or SUM159 cells, which were subsequently used in an ALDEFLUOR™ assay.

Row | Compound | chronic toxicity (body condition score, food uptake, fecal/urine production, behavior, body weight) ([1]; 25 mg/kg every 3 days for 18 days) | acute toxicity (body condition score, food uptake, fecal/urine production, behavior, body weight) ([1]; ascending doses 12.5 to 200 mg/kg at 24 h intervals) | lung metastasis by BLI (FIG. 5B) (SUM159-M1a cells) | inhibition of Aldh1a2 activity (FIG. 2B) (Aldh1a2) | isoform specificity, percentage of ALDEFLUOR-positive SUM159 cells (FIG. 13C) (ALDH1a3)
1 | CCc1cnccc1C(=O)Nc1cc2c(cc1F)NC(=O)CC2 [MBE1, 3-ethyl-N-(7-fluoro-2-oxo-1,2,3,4-tetrahydroquinolin-6-yl)isonicotinamide] | Neither experiment showed any indication of either acute or chronic toxicity | Neither experiment showed any indication of either acute or chronic toxicity | effective therapeutic to treat established metastatic disease |  | 
2 | CCc1ccccc1C(=O)Nc1cc2c(cc1F)NC(=O)CC2 [MBE1.5, 2-ethyl-N-(7-fluoro-2-oxo-1,2,3,4-tetrahydroquinolin-6-yl)benzamide] |  |  |  | does not inhibit | specifically inhibits ALDH1a3 at concentrations below 10 μM
